{"source": "patent US5023239A", "about": "“Sialosyl cholesterol, process for producing the same, and neuropathy remedy comprising the same” (MECT Corporation, priority 1986, dated 1991)", "key": {"ddy male mice": {"system": "ddy male mice", "test": "Acute toxicity test, intravenous injection", "assay_type": "in vivo, mouse", "settings": "ddy male mice of 45 weeks age", "protocol": "Acute toxicity test was conducted by intravenously injecting the compounds into ddy male mice of 45 weeks age."}, "[1]": {"system": "Neuroblastoma Cell, Neuro 2a Strain", "test": "Effect on proliferation / neurite propagation of neuroblastoma cell, Neuro 2a strain", "assay_type": "cell-based, mouse", "protocol": "Experiments for confirming the activity of the present compound for promoting propagation of neurites will be explained below.\nEffect On Proliferation of Neuroblastoma Cell, Neuro 2a Strain\nNeuro 2a was floated on culture medium consisting of 90% of Dulbecco's Modified Eagle's Midium, and 10% of fetal calf serum (FCS), and containing 100 units/ml of penicillin G and 100 micro g/ml of streptomycin sulfate, and then cultivated at 37° C. in a carbon dioxide incubator containing air into which 5% of carbon dioxide was incorporated. The vessel as used was a polystyrene tray having a diameter of 60 mm. 1 to 2×10^4 of the neuroblastoma cells were implanted in each tray and cultivated for 48 hours. The FCS-containing culture was removed from the resultant cell culture. […] When 24 and 48 hours had passed after the addition of these medicines, the number of the living cells increased in the culture, the number of the neurites increased, and the length of the neurites were measured. The experiment was conducted on three trays with respect to each concentration. The resultant data were expressed by average value+standard error (S.E)."}}}
{"molecule": "CC(=O)NC1C(O)CC(OC2CCC3(C)C(=CCC4C3CCC3(C)C(C(C)CCCC(C)C)CCC43)C2)(C(=O)O)OC1C(O)C(O)CO", "note": "[Compound (4), sodium 5-acetoamide-2-O-(5-cholesten-3-yl)-3,5-dideoxy-alpha-D-glycero-D-galacto-2-nonulopyranosonate]", "values": [{"measurement": "LD50", "setting": "ddy male mice", "result": 93, "unit": "mg/kg"}, {"measurement": "activity (in words)", "setting": "[1]; 24 hours cultivation, 10 ng/ml", "result": "indicated activity"}, {"measurement": "Length of neurite ± S.E.", "setting": "[1]; 24 hrs, 10 ng/ml", "result": "92.4 ± 5.31", "unit": "μm/cell"}, {"measurement": "Number of neurite propagated cells", "setting": "[1]; 24 hrs, 10 ng/ml", "result": 131}, {"measurement": "Number of neurites ± S.E.", "setting": "[1]; 24 hrs, 10 ng/ml", "result": "1.2 ± 0.04", "unit": "number/cell"}, {"measurement": "Rate of neurite propagation (%)", "setting": "[1]; 24 hrs, 10 ng/ml", "result": 31.5, "unit": "%"}, {"measurement": "Total number of cells", "setting": "[1]; 24 hrs, 10 ng/ml", "result": 416}, {"measurement": "Length of neurite ± S.E.", "setting": "[1]; 24 hrs, 100 ng/ml", "result": "96.7 ± 4.12", "unit": "μm/cell"}, {"measurement": "Number of neurite propagated cells", "setting": "[1]; 24 hrs, 100 ng/ml", "result": 177}, {"measurement": "Number of neurites ± S.E.", "setting": "[1]; 24 hrs, 100 ng/ml", "result": "1.2 ± 0.03", "unit": "number/cell"}, {"measurement": "Rate of neurite propagation (%)", "setting": "[1]; 24 hrs, 100 ng/ml", "result": 41.5, "unit": "%"}, {"measurement": "Total number of cells", "setting": "[1]; 24 hrs, 100 ng/ml", "result": 427}, {"measurement": "Length of neurite ± S.E.", "setting": "[1]; 24 hrs, 1 μg/ml", "result": "130.4 ± 6.12", "unit": "μm/cell"}, {"measurement": "Number of neurite propagated cells", "setting": "[1]; 24 hrs, 1 μg/ml", "result": 190}, {"measurement": "Number of neurites ± S.E.", "setting": "[1]; 24 hrs, 1 μg/ml", "result": "1.2 ± 0.03", "unit": "number/cell"}, {"measurement": "Rate of neurite propagation (%)", "setting": "[1]; 24 hrs, 1 μg/ml", "result": 50.9, "unit": "%"}, {"measurement": "Total number of cells", "setting": "[1]; 24 hrs, 1 μg/ml", "result": 373}, {"measurement": "minimal effective concentration", "setting": "[1]; 48 hours after addition", "result": 10, "unit": "ng/mL"}, {"measurement": "Length of neurite ± S.E.", "setting": "[1]; 48 hrs, 10 ng/ml", "result": "121.9 ± 5.18", "unit": "μm/cell"}, {"measurement": "Number of neurite propagated cells", "setting": "[1]; 48 hrs, 10 ng/ml", "result": 219}, {"measurement": "Number of neurites ± S.E.", "setting": "[1]; 48 hrs, 10 ng/ml", "result": "1.2 ± 0.03", "unit": "number/cell"}, {"measurement": "Rate of neurite propagation (%)", "setting": "[1]; 48 hrs, 10 ng/ml", "result": 46.9, "unit": "%"}, {"measurement": "Total number of cells", "setting": "[1]; 48 hrs, 10 ng/ml", "result": 467}, {"measurement": "Length of neurite ± S.E.", "setting": "[1]; 48 hrs, 100 ng/ml", "result": "126.0 ± 6.10", "unit": "μm/cell"}, {"measurement": "Number of neurite propagated cells", "setting": "[1]; 48 hrs, 100 ng/ml", "result": 193}, {"measurement": "Number of neurites ± S.E.", "setting": "[1]; 48 hrs, 100 ng/ml", "result": "1.2 ± 0.04", "unit": "number/cell"}, {"measurement": "Rate of neurite propagation (%)", "setting": "[1]; 48 hrs, 100 ng/ml", "result": 47.8, "unit": "%"}, {"measurement": "Total number of cells", "setting": "[1]; 48 hrs, 100 ng/ml", "result": 404}, {"measurement": "Length of neurite ± S.E.", "setting": "[1]; 48 hrs, 1 μg/ml", "result": "156.3 ± 8.32", "unit": "μm/cell"}, {"measurement": "Number of neurite propagated cells", "setting": "[1]; 48 hrs, 1 μg/ml", "result": 182}, {"measurement": "Number of neurites ± S.E.", "setting": "[1]; 48 hrs, 1 μg/ml", "result": "1.2 ± 0.04", "unit": "number/cell"}, {"measurement": "Rate of neurite propagation (%)", "setting": "[1]; 48 hrs, 1 μg/ml", "result": 49.3, "unit": "%"}, {"measurement": "Total number of cells", "setting": "[1]; 48 hrs, 1 μg/ml", "result": 369}, {"measurement": "growth / propagation of neurites (in words)", "setting": "[1]; Neuro 2a culture", "result": "strong activity for the propagation of the neurites"}, {"measurement": "activity relative to GMl (times as high)", "setting": "[1]; vs GMl, from minimal effective concentrations at 48 hours, molecular weights considered", "result": 420, "unit": "times"}, {"measurement": "activity relative to GQlb (times as high)", "setting": "[1]; vs GQlb, from minimal effective concentrations at 48 hours, molecular weights considered", "result": 270, "unit": "times"}]}
